Assay results taken from patent US3931262A, “Hydrophilic and difficultly volatile biocidal triorganotin compounds” (priority 1972, dated 1976).

How the values were obtained:
Solubility in water = assay type: physicochemical; conditions: for Solubility in water (in words): Table 1 and text
Source text: Solubility properties of tributyltin derivatives [formula]

[1] = system: Salmonella cholerae-suis VBIB; assay type: cell-based
Trichophyton gypseum CBS = assay: Microbiological test; assay type: cell-based
Source text: (§1) In the test for microbiocidal activity the compounds listed hereinbelow yielded the values indicated in the following Table: No. Compound __________________________________________________________________________ 1 (n--C4 H9)3 Sn--S--CH2 --CH2 --COO.(CH 2 --CH2 --O--n H(n~9) 2 (C6 H5)3 Sn--S--(CH2)3 --SO3.Na CH3 .vertline. 3 --Sn--S--CH2 --CH2 --COO--(CH2 --CH2 --O)n.H(n ~9) .vertline. CH3 4 (n--C4 H9)3 Sn--S--CH2 --COO.H.N(CH2 CH2 OH)3 5 (n--C4 H9)3 Sn--S--(CH2)2 --COO.H.N(CH2 CH2 OH)3 6 (n--C4 H9)3 Sn--S--CH2 --CO.N(CH2 CH2 OH)2 __________________________________________________________________________

Coniphora cerebella CBS = assay: Microbiological test; assay type: cell-based
Source text: as §1

[2] = system: Mycobacterium phlei CITM 61; assay: Microbiological test; assay type: cell-based
Source text: as §1

[3] = system: Pasteurella multocida K753; assay: Microbiological test; assay type: cell-based
Source text: as §1

[4] = system: Staphylococcus aureus SG 511; assay: Microbiological test; assay type: cell-based
Source text: as §1

[5] = system: Bacillus subtilis NCTC 6460; assay: Microbiological test; assay type: cell-based
Source text: as §1

[6] = system: Pullularia pullulans CBS 10767; assay: Microbiological test; assay type: cell-based
Source text: as §1

[7] = system: Arizona paracolon 7:1.7,8; assay: Microbiological test; assay type: cell-based
Source text: as §1

[8] = system: Polystictus versicolor EMPA61; assay: Microbiological test; assay type: cell-based
Source text: as §1

Candida albicans CBS = assay: Microbiological test; assay type: cell-based
Source text: as §1

Salmonella pullorum VBIZ = assay: Microbiological test; assay type: cell-based
Source text: as §1

[9] = system: Aspergillus niger ATCC 6275; assay: Microbiological test; assay type: cell-based
Source text: as §1

[10] = system: Alternaria tenuis CBS 10426; assay: Microbiological test; assay type: cell-based
Source text: as §1

[11] = system: Corynebacterium diphteroides FUR; assay: Microbiological test; assay type: cell-based
Source text: as §1

[12] = system: Penicillium funiculosum CEB 329631; assay: Microbiological test; assay type: cell-based
Source text: as §1

[13] = system: Streptococcus faecalis NCTC 8619; assay: Microbiological test; assay type: cell-based
Source text: as §1

[14] = system: Penicillium expansum SMC 36; assay: Microbiological test; assay type: cell-based
Source text: as §1

[15] = system: Pseudomonas fluorescens NCTC 4755; assay: Microbiological test; assay type: cell-based
Source text: as §1

Paecilomyces varioti CBS = assay: Microbiological test; assay type: cell-based
Source text: as §1

Lenzites abietina CBS = assay: Microbiological test; assay type: cell-based
Source text: as §1

[16] = system: Aspergillus flavus CBS 12662; assay: Microbiological test; assay type: cell-based
Source text: as §1

[17] = system: Stachybotrys atra CBS 32465; assay: Microbiological test; assay type: cell-based
Source text: as §1

[18] = system: Trichoderma viride CEB 3334.2; assay: Microbiological test; assay type: cell-based
Source text: as §1

[19] = system: Staphylococcus aureus SG 511 M6; assay: Microbiological test; assay type: cell-based
Source text: as §1

Poria vaporia CBS = assay: Microbiological test; assay type: cell-based
Source text: as §1

[20] = system: Escherichia coli NCTC 8195; assay: Microbiological test; assay type: cell-based
Source text: as §1

Fusarium oxysporum CBS = assay: Microbiological test; assay type: cell-based
Source text: as §1

Sarcina ureae SMB 81 = assay: Microbiological test; assay type: cell-based
Source text: as §1

[21] = system: Escherichia coli RP 45410; assay: Microbiological test; assay type: cell-based
Source text: as §1

[22] = system: Chaetomium globosum CBS 14851; assay: Microbiological test; assay type: cell-based
Source text: as §1

[23] = system: Streptococcus agalactiae M100; assay: Microbiological test; assay type: cell-based
Source text: as §1

Hefe DAP = assay: Microbiological test; assay type: cell-based
Source text: as §1

Fusarium spec. DAP = assay: Microbiological test; assay type: cell-based
Source text: as §1

Hefe rot DAP = assay: Microbiological test; assay type: cell-based
Source text: as §1

[24] = system: Salmonella gallinarum VBIB; assay: Microbiological test; assay type: cell-based
Source text: as §1

Pilz schwarzlich DAP = assay: Microbiological test; assay type: cell-based
Source text: as §1

Molecule	Activity range [1] [ppm]	Activity range (Trichophyton gypseum CBS) [ppm]	Activity range (Coniphora cerebella CBS) [ppm]	Activity range [2] [ppm]	Activity range [3] [ppm]	Activity range [4] [ppm]	Activity range [5] [ppm]	Activity range [6] [ppm]	Activity range [7] [ppm]	Activity range [8] [ppm]	Activity range (Candida albicans CBS) [ppm]	Activity range (Salmonella pullorum VBIZ) [ppm]	Activity range [9] [ppm]	Activity range [10] [ppm]	Activity range [11] [ppm]	Activity range [12] [ppm]	Activity range [13] [ppm]	Activity range [14] [ppm]	Activity range [15] [ppm]	Activity range (Paecilomyces varioti CBS) [ppm]	further results
CCC[CH2][Sn]([CH2]CCC)([CH2]CCC)[O][Sn]([CH2]CCC)([CH2]CCC)[CH2]CCC [TBTO, bis-(tri-n-butyltin)-oxide]	–	–	–	–	–	–	–	–	–	–	–	–	–	–	–	–	–	–	–	–	Solubility in water (Solubility in water; Table 1, comparison): 20 ppm; Solubility in water (in words) (Solubility in water): poor
CCC[CH2][Sn]([CH2]CCC)([CH2]CCC)[S]CCC(=O)[O-].OCC[NH+](CCO)CCO [Compound 5, triethanolammonium S-tri-n-butyl tin-β-mercaptopropionate]	> 300	10	10	10	30	10	10	10	> 300	30	10	> 300	10	≤ 3	10	10	100	10	30	≤ 3	Activity range (Lenzites abietina CBS): 10 ppm; Activity range [16]: 10 ppm; Activity range [17]: ≤ 3 ppm; Activity range [18]: 10 ppm; Activity range [19]: 30 ppm; Activity range (Poria vaporia CBS): 10 ppm; Activity range [20]: > 300 ppm; Activity range (Fusarium oxysporum CBS): 10 ppm; Activity range (Sarcina ureae SMB 81): 30 ppm; Activity range [21]: > 300 ppm; Activity range [22]: ≤ 3 ppm; Activity range [23]: 30 ppm
S-tri-n-butyl-tin-β-mercaptopropionic acid polyethylene glycol ester [Compound 1]	> 300	30	10	3	10	10	10	10	> 300	100	30	> 300	30	30	10	30	10	30	10	30	Activity range (Hefe DAP): 10 ppm; Activity range (Fusarium spec. DAP): 30 ppm; Activity range (Lenzites abietina CBS): 10 ppm; Activity range [16]: 30 ppm; Activity range [17]: 10 ppm; Activity range [18]: 100 ppm; Activity range [19]: 10 ppm; Activity range (Poria vaporia CBS): 100 ppm; Activity range [20]: 10 ppm; Activity range (Hefe rot DAP): 10 ppm; Activity range (Fusarium oxysporum CBS): 30 ppm; Activity range [24]: > 300 ppm; Activity range (Pilz schwarzlich DAP): 10 ppm; Activity range (Sarcina ureae SMB 81): 10 ppm; Activity range [21]: 10 ppm; Activity range [22]: 10 ppm; Activity range [23]: 3 ppm
CCC[CH2][Sn]([CH2]CCC)([CH2]CCC)[S]CC(=O)[O-].OCC[NH+](CCO)CCO [Compound 4, triethylammonium S-tri-n-butyl tin-thioglycolate]	> 300	10	10	30	30	30	30	10	> 300	100	10	> 300	10	10	30	30	30	10	> 300	10	Activity range (Lenzites abietina CBS): 10 ppm; Activity range [16]: 10 ppm; Activity range [17]: 10 ppm; Activity range [18]: 10 ppm; Activity range [19]: 30 ppm; Activity range (Poria vaporia CBS): 10 ppm; Activity range [20]: 30 ppm; Activity range (Fusarium oxysporum CBS): 10 ppm; Activity range (Sarcina ureae SMB 81): 30 ppm; Activity range [21]: 30 ppm; Activity range [22]: 10 ppm; Activity range [23]: 30 ppm
CCC[CH2][Sn]([CH2]CCC)([CH2]CCC)[S]CC(O)CO (stereo not shown) [--CH2 --CH--CH2]	–	–	–	–	–	–	–	–	–	–	–	–	–	–	–	–	–	–	–	–	Solubility in water (in words) (Solubility in water): satisfactory
CCC[CH2][Sn]([CH2]CCC)([CH2]CCC)[S]CC(=O)N(CCO)CCO [Compound 6, S-tri-n-butyl tin-thioglycolic acid diethanolamide]	> 300	10	10	≤ 1	30	30	≤ 1	10	> 300	30	10	> 300	10	≤ 3	≤ 1	30	30	10	30	≤ 3	Activity range (Lenzites abietina CBS): 10 ppm; Activity range [16]: 10 ppm; Activity range [17]: ≤ 3 ppm; Activity range [18]: 10 ppm; Activity range [19]: 3 ppm; Activity range (Poria vaporia CBS): 10 ppm; Activity range [20]: 30 ppm; Activity range (Fusarium oxysporum CBS): 10 ppm; Activity range (Sarcina ureae SMB 81): ≤ 1 ppm; Activity range [21]: 30 ppm; Activity range [22]: ≤ 3 ppm; Activity range [23]: 3 ppm
